From patent publication US20120196899A1, “METHODS AND PRODUCTS FOR TREATING INFLAMMATION” (Rock Creek Pharmaceuticals, Inc., priority 2010, published 2012)
Where two headings read alike, the source gives them in different places.

Assay: Plasma toxicokinetics after single i.v. bolus
Format: in vivo, Sprague-Dawley rats
Settings: for concentration at 4 h / concentration at 6 h / concentration at 1 h / concentration at 2 h / concentration at 8 h / concentration at 0.5 h / half-life: Sprague-Dawley, rat, plasma; for concentration at 4 h / concentration at 6 h / concentration at 1 h / concentration at 2 h / concentration at 8 h / concentration at 0.5 h: intravenous; for half-life: iv
Protocol: Six rats (3 males and 3 females) were dosed per dose group. […] Plasma and brain homogenates were stored at −80° C. until analysis.
An additional 48 rats (24 males and 24 females) received a single intravenous dose via the tail vein at the same doses as mentioned above. At 30 and 360 minutes post administration, 6 rats (3 males and 3 females) per dose group, per time point were euthanized, bled via cardiac puncture, and perfused, and brains were collected. The brains were homogenized. Blood was spun, and plasma was collected. Plasma and brain homogenate were stored at −80° C.
Four aliquots of each dose level formulation were collected and stored at −80° C. The test compound, corresponding dose level, number of animals, and sample collection times for Phase I of the study are shown in Table 3. The test compound, corresponding dose level, number of animals, and sample collection times for Phase II of the study are shown in Table 4. The physical signs of each animal were monitored following administration of the test compound.
The animals were weighed prior to dosing and received a single i.v. dose of either test compound at a volume of 5 mL/kg. Blood was collected via the venus plexus (retro-orbital) into tubes containing (K2) EDTA. No more than 0.5 mL was collected per time point. […] The brain was removed, weighed, homogenized in sterile 0.9% saline at a volume equal to its weight, and stored at −80° C.
Plasma was separated according to the instructions for MICROTAINER® brand collection tubes (3 minutes, 2000×g). Plasma was decanted into microfuge tubes and stored at −80° C. Remaining test compound was stored at −80° C.
The signal was optimized for each compound by electrospray ionization (ESI) positive or negative ionization mode. A single ion mode (SIM) scan was used to optimize the Fragmentor for the precursor ion and a product ion analysis was used to identify the best fragment for analysis and to optimize the collision energy. The fragment which gave the most sensitive and specific signal was chosen.
Sample preparation. […] The amount of the test agent in the supernatant was determined by liquid chromatography tandem mass spectrometry (LC/MS/MS).
Analysis. Samples were analyzed by LC/MS/MS using an Agilent 6410 mass spectrometer coupled with an Agilent 1200 high pressure liquid chromatography (HPLC) and a CTC PAL chilled autosampler, all controlled by MassHunter software (Agilent). After separation on a hydrophilic interaction liquid chromatography (HILIC) HPLC column (Sepax) using an acetonitrile-ammonium acetate/acetic acid gradient system, peaks were analyzed by mass spectrometry (MS) using ESI ionization in multiple reaction monitoring (MRM) mode. MassHunter software was used to calculate the concentration of the test compounds in samples from the peak area using the appropriate calibration curves.
Calibration samples. Calibration curves were determined for both rat plasma and brain homogenate. Calibration samples were prepared by diluting a 50× stock solution of the test compound in PBS with blank matrix to the appropriate concentration and these samples were prepared as described above in the sample preparation.

[1] = 0.75 mg/kg, Concentration of anatabine in rat plasma, Anatabine 0.75 mg/kg, rat plasma, rats of group 3
[2] = 0.75 mg/kg, Concentration of anatabine in rat plasma, Anatabine 0.75 mg/kg, rat plasma, rats of group 4
[3] = 1 mg/kg, Concentration of anatabine in rat plasma, Anatabine 1.0 mg/kg, rat plasma, rats of group 5
[4] = 1 mg/kg, Concentration of anatabine in rat plasma, Anatabine 1.0 mg/kg, rat plasma, rats of group 6
[5] = both sexes, 0.1 mg/kg, Anatabine 0.1 mg/kg, male and female, read-out: Avg. Conc. rat plasma, combined male and female
[6] = both sexes, 0.1 mg/kg, Concentration of anatabine in rat plasma, Anatabine 0.1 mg/kg, Rat Plasma, individual rats
[7] = both sexes, 0.75 mg/kg, Anatabine 0.75 mg/kg, male and female, read-out: Avg. Conc. rat plasma, combined male and female
[8] = both sexes, 1 mg/kg, Anatabine 1.0 mg/kg, male and female, read-out: Avg. Conc. rat plasma, combined male and female

What does the source list for `C1=CCC(c2cccnc2)NC1` (racemic) [Anatabine, 1,2,3,6-tetrahydro-[2,3′]bipyridinyl]?
Avg. Conc. rat plasma (Anatabine 0.1 mg/kg, female, 8 hr): <LLQ; Avg. Conc. rat plasma (Anatabine 0.1 mg/kg, female, 24 hr): <LLQ; Avg. Conc. rat plasma, combined male and female (Anatabine 0.1 mg/kg, male and female, 8 hr): <LLQ; Avg. Conc. rat plasma, combined male and female (Anatabine 0.1 mg/kg, male and female, 24 hr): <LLQ; Avg. Conc. rat plasma (Anatabine 0.1 mg/kg, male, 6 hr (1st 6 hr line)): <LLQ; Avg. Conc. rat plasma (Anatabine 0.1 mg/kg, male, 8 hr): <LLQ; Avg. Conc. rat plasma (Anatabine 0.1 mg/kg, male, 24 hr): <LLQ; Avg. Conc. rat plasma (Anatabine 0.75 mg/kg, female, 24 hr): <LLQ; Avg. Conc. rat plasma, combined male and female (Anatabine 0.75 mg/kg, male and female, 24 hr): <LLQ; Avg. Conc. rat plasma (Anatabine 0.75 mg/kg, male, 24 hr): <LLQ; Avg. Conc. rat plasma (Anatabine 1.0 mg/kg, female, 24 hr): <LLQ; Avg. Conc. rat plasma, combined male and female (Anatabine 1.0 mg/kg, male and female, 24 hr): <LLQ; Avg. Conc. rat plasma (Anatabine 1.0 mg/kg, male, 24 hr): <LLQ; concentration at 4 h (0.1 mg/kg, Concentration of anatabine in rat plasma, Anatabine 0.1 mg/kg, Rat Plasma, individual rats): 3 ng/mL; concentration at 6 h (0.1 mg/kg, Concentration of anatabine in rat plasma, Anatabine 0.1 mg/kg, rat plasma, 6 hr, rats 2A-2C): 3 ng/mL; concentration at 1 h [1]: 153 ng/mL; concentration at 1 h [2]: 146 ng/mL; concentration at 2 h [1]: 73 ng/mL; concentration at 2 h [2]: 89 ng/mL; concentration at 4 h [1]: 29 ng/mL; concentration at 4 h [2]: 45 ng/mL; concentration at 8 h (0.75 mg/kg, Concentration of anatabine in rat plasma, Anatabine 0.75 mg/kg, rat plasma, 8 hr, rats of group 3): 8 ng/mL; concentration at 8 h (0.75 mg/kg, Concentration of anatabine in rat plasma, Anatabine 0.75 mg/kg, rat plasma, 8 hr, rats of group 4): 10 ng/mL; concentration at 0.5 h (1 mg/kg, Concentration of anatabine in rat plasma, Anatabine 1.0 mg/kg, rat plasma, 0.5 hr, rats of group 5): 288 ng/mL; concentration at 0.5 h (1 mg/kg, Concentration of anatabine in rat plasma, Anatabine 1.0 mg/kg, rat plasma, 0.5 hr, rats of group 6): 222 ng/mL; concentration at 1 h [3]: 257 ng/mL; concentration at 1 h [4]: 218 ng/mL; concentration at 2 h [3]: 121 ng/mL; concentration at 2 h [4]: 147 ng/mL; concentration at 4 h [3]: 36 ng/mL; concentration at 4 h [4]: 73 ng/mL; concentration at 6 h (1 mg/kg, Concentration of anatabine in rat plasma, Anatabine 1.0 mg/kg, rat plasma, 6 hr, rats of group 6): 33 ng/mL; concentration at 8 h (1 mg/kg, Concentration of anatabine in rat plasma, Anatabine 1.0 mg/kg, rat plasma, 8 hr, rats of group 5): 8 ng/mL; concentration at 8 h (1 mg/kg, Concentration of anatabine in rat plasma, Anatabine 1.0 mg/kg, rat plasma, 8 hr, rats of group 6): 19 ng/mL; t1/2 (anatabine 0.1 mg/kg single i.v., female rats): 1.64 ± 0.59 h; t1/2 (anatabine 0.75 mg/kg single i.v., male rats): 1.64 ± 0.12 h; t1/2 (anatabine 0.75 mg/kg single i.v., rat plasma, M + F): 1.68 ± 0.09 h; t1/2 (anatabine 1.0 mg/kg single i.v., rat plasma, M + F): 1.64 ± 0.25 h; concentration at 0.5 h (both sexes, 0.1 mg/kg, Anatabine 0.1 mg/kg, male and female, 0.5 hr (1st 0.5 hr line), n=12, read-out: Avg. Conc. rat plasma, combined male and female): 22.9 ng/mL; concentration at 1 h [5]: 8 ng/mL; concentration at 2 h [5]: 8.7 ng/mL; concentration at 4 h [5]: 5.2 ng/mL; concentration at 6 h (both sexes, 0.1 mg/kg, Anatabine 0.1 mg/kg, male and female, 6 hr (1st 6 hr line), n=6, read-out: Avg. Conc. rat plasma, combined male and female): 4.3 ng/mL; concentration at 6 h (both sexes, 0.1 mg/kg, Anatabine 0.1 mg/kg, male and female, 6 hr (2nd 6 hr line), n=4, read-out: Avg. Conc. rat plasma, combined male and female): 4.5 ng/mL; concentration at 1 h [6]: 10 ng/mL; concentration at 2 h [6]: 6 ng/mL; concentration at 0.5 h (both sexes, 0.75 mg/kg, Anatabine 0.75 mg/kg, male and female, 0.5 hr (1st 0.5 hr line), n=12, read-out: Avg. Conc. rat plasma, combined male and female): 257 ng/mL; concentration at 0.5 h (both sexes, 0.75 mg/kg, Anatabine 0.75 mg/kg, male and female, 0.5 hr (2nd 0.5 hr line), n=6, read-out: Avg. Conc. rat plasma, combined male and female): 328 ng/mL; concentration at 1 h [7]: 162 ng/mL; concentration at 2 h [7]: 91.7 ng/mL; concentration at 4 h [7]: 40 ng/mL; concentration at 6 h (both sexes, 0.75 mg/kg, Anatabine 0.75 mg/kg, male and female, 6 hr (1st 6 hr line), n=12, read-out: Avg. Conc. rat plasma, combined male and female): 19.3 ng/mL; concentration at 6 h (both sexes, 0.75 mg/kg, Anatabine 0.75 mg/kg, male and female, 6 hr (2nd 6 hr line), n=6, read-out: Avg. Conc. rat plasma, combined male and female): 22.5 ng/mL; concentration at 8 h (both sexes, 0.75 mg/kg, Anatabine 0.75 mg/kg, male and female, 8 hr, read-out: Avg. Conc. rat plasma, combined male and female): 10 ng/mL; concentration at 0.5 h (both sexes, 1 mg/kg, Anatabine 1.0 mg/kg, male and female, 0.5 hr (1st 0.5 hr line), n=12, read-out: Avg. Conc. rat plasma, combined male and female): 319 ng/mL; concentration at 0.5 h (both sexes, 1 mg/kg, Anatabine 1.0 mg/kg, male and female, 0.5 hr (2nd 0.5 hr line), n=6, read-out: Avg. Conc. rat plasma, combined male and female): 384 ng/mL; concentration at 1 h [8]: 231 ng/mL; concentration at 2 h [8]: 143 ng/mL; concentration at 4 h [8]: 51.5 ng/mL; concentration at 6 h (both sexes, 1 mg/kg, Anatabine 1.0 mg/kg, male and female, 6 hr (1st 6 hr line), n=12, read-out: Avg. Conc. rat plasma, combined male and female): 24.3 ng/mL; concentration at 6 h (both sexes, 1 mg/kg, Anatabine 1.0 mg/kg, male and female, 6 hr (2nd 6 hr line), n=6, read-out: Avg. Conc. rat plasma, combined male and female): 25 ng/mL; concentration at 8 h (both sexes, 1 mg/kg, Anatabine 1.0 mg/kg, male and female, 8 hr, read-out: Avg. Conc. rat plasma, combined male and female): 12.7 ng/mL; half-life (both sexes, 0.1 mg/kg, anatabine 0.1 mg/kg single i.v., rat plasma, M + F, read-out: t1/2 (converted)): 1.44 ± 0.48 h; half-life (both sexes, elimination half-life (t1/2), range over the anatabine treatment groups, anatabine 0.1-1.0 mg/kg single i.v., rats M + F): 1.64 to 1.68 h; concentration at 0.5 h (female, 0.1 mg/kg, Anatabine 0.1 mg/kg, female, 0.5 hr (1st 0.5 hr line), read-out: Avg. Conc. rat plasma): 13 ng/mL
